In PubChem BioAssay AID1845205 (Molecular Pharmacology Branch, DTP, NCI, 2023):
“And” between values parts separate entries of the source, which are not always exact repeats. Equal values may be shown once.

Test system: MPNST multicellular tumor spheroids, viability % test/control
Experiment: Anticancer human tumor MPNST cell line growth inhibition;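 further: spheroids exposed to agents for seven days after three days of growth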;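 on viability, T/C: luminescence signal used as surrogate for viable cell amount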
Settings: for viability, T/C: stronger effect = lower value
How it was run: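 Complex tumor spheroids combined malignant cells with endothelial cells and mesenchymal stem cells. DNA-damaging drugs and DNA repair inhibitors were tested alone and in combination, at half-log dilutions down from clinical Cmax (top 10 microM if Cmax unknown), 0.25% DMSO final.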

[1] = curve of first compound, second compound 1 µM
[2] = curve of first compound, second compound 3.16 µM
[3] = curve of first compound, second compound 10 µM
[4] = curve of first compound, second compound 31.6 µM
[5] = curve of first compound, second compound 100 µM

## Cn1ncnc1[C@H]1c2n[nH]c(=O)c3cc(F)cc(c23)N[C@@H]1c1ccc(F)cc1 + Cn1nnc2c(C(N)=O)ncn2c1=O
[1]
  IC50: 2760 nM
[2]
  IC50: > 3000 nM
[3]
  IC50: > 3000 nM
[4]
  IC50: 505 nM
[5]
  IC50: 27 nM
Second compound 1 µM, first compound 0.00949 µM
  viability, T/C: 93.1%
Second compound 1 µM, first compound 0.03 µM
  viability, T/C: 77.1%
Second compound 1 µM, first compound 0.0949 µM
  viability, T/C: 70.3%
Second compound 1 µM, first compound 0.3 µM
  viability, T/C: 58.9%
Second compound 1 µM, first compound 0.949 µM
  viability, T/C: 52%
Second compound 1 µM, first compound 3 µM
  viability, T/C: 50.8%
Second compound 3.16 µM, first compound 0.00949 µM
  viability, T/C: 77.7%
Second compound 3.16 µM, first compound 0.03 µM
  viability, T/C: 74%
Second compound 3.16 µM, first compound 0.0949 µM
  viability, T/C: 74.2%
Second compound 3.16 µM, first compound 0.3 µM
  viability, T/C: 55.2%
Second compound 3.16 µM, first compound 0.949 µM
  viability, T/C: 53.7%
Second compound 3.16 µM, first compound 3 µM
  viability, T/C: 52.7%
Second compound 10 µM, first compound 0.00949 µM
  viability, T/C: 79%
Second compound 10 µM, first compound 0.03 µM
  viability, T/C: 71.6%
Second compound 10 µM, first compound 0.0949 µM
  viability, T/C: 63.9%
Second compound 10 µM, first compound 0.3 µM
  viability, T/C: 55.8%
Second compound 10 µM, first compound 0.949 µM
  viability, T/C: 51.7%
Second compound 10 µM, first compound 3 µM
  viability, T/C: 51.7%
Second compound 31.6 µM, first compound 0.00949 µM
  viability, T/C: 61.7%
Second compound 31.6 µM, first compound 0.03 µM
  viability, T/C: 56%
Second compound 31.6 µM, first compound 0.0949 µM
  viability, T/C: 58.1%
Second compound 31.6 µM, first compound 0.3 µM
  viability, T/C: 48.9%
Second compound 31.6 µM, first compound 0.949 µM
  viability, T/C: 48.2%
Second compound 31.6 µM, first compound 3 µM
  viability, T/C: 46.5%
Second compound 100 µM, first compound 0.00949 µM
  viability, T/C: 52.5%
Second compound 100 µM, first compound 0.03 µM
  viability, T/C: 50%
Second compound 100 µM, first compound 0.0949 µM
  viability, T/C: 49%
Second compound 100 µM, first compound 0.3 µM
  viability, T/C: 46.2%
Second compound 100 µM, first compound 0.949 µM
  viability, T/C: 47.5%
Second compound 100 µM, first compound 3 µM
  viability, T/C: 48.3%

## CC1COCCN1c1cc(-c2ccnn2C)c2ccnc(-c3ccn[nH]3)c2n1 (configuration not stated)
Compound 0.0316 µM
  viability, T/C: 54.6% and 70.5% and 65.8%
Compound 0.1 µM
  viability, T/C: 47.8% and 60% and 55.1%
Compound 0.316 µM
  viability, T/C: 37.7% and 46.4% and 41.8%
Compound 1 µM
  viability, T/C: 39.5% and 46.2% and 33.2%
Compound 3.16 µM
  viability, T/C: 28.1% and 34.2% and 28.3%
Compound 10 µM
  viability, T/C: 22.3% and 30.9% and 25%
Curve of compound
  IC50: 65.9 nM and 315 nM and 154 nM

## [2H]c1nc(C)nc([2H])c1-c1cc(NC[C@@H](C)c2cccc3c(C(=O)NC)ccnc23)ncn1 + Cn1nnc2c(C(N)=O)ncn2c1=O
[1]
  IC50: > 10000 nM
[2]
  IC50: > 10000 nM
[3]
  IC50: > 10000 nM
[4]
  IC50: > 10000 nM
[5]
  IC50: > 10000 nM
Second compound 1 µM, first compound 0.0316 µM
  viability, T/C: 86.5%
Second compound 1 µM, first compound 0.1 µM
  viability, T/C: 86.8%
Second compound 1 µM, first compound 0.316 µM
  viability, T/C: 93.2%
Second compound 1 µM, first compound 1 µM
  viability, T/C: 101%
Second compound 1 µM, first compound 3.16 µM
  viability, T/C: 97.3%
Second compound 1 µM, first compound 10 µM
  viability, T/C: 104%
Second compound 3.16 µM, first compound 0.0316 µM
  viability, T/C: 114%
Second compound 3.16 µM, first compound 0.1 µM
  viability, T/C: 100%
Second compound 3.16 µM, first compound 0.316 µM
  viability, T/C: 76.3%
Second compound 3.16 µM, first compound 1 µM
  viability, T/C: 91%
Second compound 3.16 µM, first compound 3.16 µM
  viability, T/C: 89.8%
Second compound 3.16 µM, first compound 10 µM
  viability, T/C: 104%
Second compound 10 µM, first compound 0.0316 µM
  viability, T/C: 81.1%
Second compound 10 µM, first compound 0.1 µM
  viability, T/C: 94.9%
Second compound 10 µM, first compound 0.316 µM
  viability, T/C: 108%
Second compound 10 µM, first compound 1 µM
  viability, T/C: 116%
Second compound 10 µM, first compound 3.16 µM
  viability, T/C: 94.1%
Second compound 10 µM, first compound 10 µM
  viability, T/C: 108%
Second compound 31.6 µM, first compound 0.0316 µM
  viability, T/C: 85%
Second compound 31.6 µM, first compound 0.1 µM
  viability, T/C: 85.9%
Second compound 31.6 µM, first compound 0.316 µM
  viability, T/C: 79.5%
Second compound 31.6 µM, first compound 1 µM
  viability, T/C: 96.8%
Second compound 31.6 µM, first compound 3.16 µM
  viability, T/C: 78.7%
Second compound 31.6 µM, first compound 10 µM
  viability, T/C: 101%
Second compound 100 µM, first compound 0.0316 µM
  viability, T/C: 89.5%
Second compound 100 µM, first compound 0.1 µM
  viability, T/C: 111%
Second compound 100 µM, first compound 0.316 µM
  viability, T/C: 113%
Second compound 100 µM, first compound 1 µM
  viability, T/C: 81.1%
Second compound 100 µM, first compound 3.16 µM
  viability, T/C: 107%
Second compound 100 µM, first compound 10 µM
  viability, T/C: 89.9%

## Cc1sc2c(c1C)C(c1ccc(Cl)cc1)=NC(CC(=O)Nc1ccc(O)cc1)c1nnc(C)n1-2 (configuration not stated) + COc1cc2c(cc1O)CCNC21CSC2c3c(OC(C)=O)c(C)c4c(c3C(COC1=O)N1C(O)C3Cc5cc(C)c(OC)c(O)c5C(C21)N3C)OCO4
Curve of first compound, second compound 30 pM
  IC50: 219 nM
Curve of first compound, second compound 94.9 pM
  IC50: 155 nM
Curve of first compound, second compound 0.0003 µM
  IC50: 58.4 nM
Curve of first compound, second compound 0.000949 µM
  IC50: < 9.49 nM
Curve of first compound, second compound 0.003 µM
  IC50: < 9.49 nM
Second compound 30 pM, first compound 0.00949 µM
  viability, T/C: 86.9%
Second compound 30 pM, first compound 0.03 µM
  viability, T/C: 71%
Second compound 30 pM, first compound 0.0949 µM
  viability, T/C: 85.7%
Second compound 30 pM, first compound 0.3 µM
  viability, T/C: 38.2%
Second compound 30 pM, first compound 0.949 µM
  viability, T/C: 26.3%
Second compound 30 pM, first compound 3 µM
  viability, T/C: 24%
Second compound 94.9 pM, first compound 0.00949 µM
  viability, T/C: 62.5%
Second compound 94.9 pM, first compound 0.03 µM
  viability, T/C: 70.3%
Second compound 94.9 pM, first compound 0.0949 µM
  viability, T/C: 56.6%
Second compound 94.9 pM, first compound 0.3 µM
  viability, T/C: 39.3%
Second compound 94.9 pM, first compound 0.949 µM
  viability, T/C: 27.9%
Second compound 94.9 pM, first compound 3 µM
  viability, T/C: 23.9%
Second compound 0.0003 µM, first compound 0.00949 µM
  viability, T/C: 59.6%
Second compound 0.0003 µM, first compound 0.03 µM
  viability, T/C: 53.3%
Second compound 0.0003 µM, first compound 0.0949 µM
  viability, T/C: 47.5%
Second compound 0.0003 µM, first compound 0.3 µM
  viability, T/C: 36.3%
Second compound 0.0003 µM, first compound 0.949 µM
  viability, T/C: 26.6%
Second compound 0.0003 µM, first compound 3 µM
  viability, T/C: 22.4%
Second compound 0.000949 µM, first compound 0.00949 µM
  viability, T/C: 31%
Second compound 0.000949 µM, first compound 0.03 µM
  viability, T/C: 29.7%
Second compound 0.000949 µM, first compound 0.0949 µM
  viability, T/C: 27.4%
Second compound 0.000949 µM, first compound 0.3 µM
  viability, T/C: 21.6%
Second compound 0.000949 µM, first compound 0.949 µM
  viability, T/C: 12.7%
Second compound 0.000949 µM, first compound 3 µM
  viability, T/C: 14.8%
Second compound 0.003 µM, first compound 0.00949 µM
  viability, T/C: 6.19%
Second compound 0.003 µM, first compound 0.03 µM
  viability, T/C: 4.21%
Second compound 0.003 µM, first compound 0.0949 µM
  viability, T/C: 4.96%
Second compound 0.003 µM, first compound 0.3 µM
  viability, T/C: 1.41%
Second compound 0.003 µM, first compound 0.949 µM
  viability, T/C: 2.26%
Second compound 0.003 µM, first compound 3 µM
  viability, T/C: 1.94%
